Source: patent publication US12404265B2, “Substituted pyridine derivatives as SARM1 inhibitors” (Nura Bio, Inc., priority 2020, dated 2025)

The compounds below were run against T1, human SARM1(50-724) (Homo sapiens, UniProt Q6SZW1) (assay: SARM1 NADase biochemical assay (HPLC of NAD and NAM)). Details: 40 nM human SARM1(50-724), 0.3 mM NMN, 20 μM NAD, 60 minutes room temperature; dose-response from 100 μM, 1:3 dilution.
T1 construct: 40 nM human SARM1(50-724)
T1 sequence (Q6SZW1 50-724): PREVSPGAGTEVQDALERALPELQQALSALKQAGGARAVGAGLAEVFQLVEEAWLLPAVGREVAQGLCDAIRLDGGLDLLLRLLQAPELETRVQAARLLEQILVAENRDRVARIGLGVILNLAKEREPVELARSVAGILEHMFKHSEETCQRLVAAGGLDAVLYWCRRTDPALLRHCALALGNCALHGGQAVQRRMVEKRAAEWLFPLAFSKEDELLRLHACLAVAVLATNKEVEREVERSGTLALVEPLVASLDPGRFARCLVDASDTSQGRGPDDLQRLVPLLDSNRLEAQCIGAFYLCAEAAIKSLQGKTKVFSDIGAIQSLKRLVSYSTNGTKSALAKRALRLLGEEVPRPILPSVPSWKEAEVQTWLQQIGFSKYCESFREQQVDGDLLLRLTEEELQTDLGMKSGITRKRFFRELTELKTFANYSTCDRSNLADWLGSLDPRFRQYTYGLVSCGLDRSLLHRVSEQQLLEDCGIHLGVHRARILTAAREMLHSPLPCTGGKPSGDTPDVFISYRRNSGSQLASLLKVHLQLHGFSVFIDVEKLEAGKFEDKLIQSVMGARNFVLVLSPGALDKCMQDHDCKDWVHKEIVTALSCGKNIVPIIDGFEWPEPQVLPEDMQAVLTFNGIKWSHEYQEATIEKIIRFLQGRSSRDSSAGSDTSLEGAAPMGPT
Method in brief: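 Human SARM1(50-724) at 40 nM with 0.3 mM NMN, 20 μM NAD, 1 mM TCEP in 25 mM HEPES pH 7.4, 10 mM KCl, 10 mM MgCl2, 1% DMSO; 60 min at room temperature, formic acid quench. NAD and NAM quantified by reverse-phase HPLC peak area; single point 50 μM or 1:3 series from 100 μM.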

IC50 [nM] | Compound
< 1000 | N#Cc1c(F)cc(CCC(=O)Nc2[nH]nc(-c3ccncc3)c2Cl)cc1F [Example 128]
1000 to 10000 | Cc1c(NC(=O)C(O)Cc2ccc(Cl)cc2)cnn1-c1ccncc1 (racemic) [Example 150, (rac)-3-(4-Chlorophenyl)-2-hydroxy-N-(5-methyl-1-(pyridin-4-yl)-1H-pyrazol-4-yl)propanamide]
< 1000 | O=C(CCc1cc(F)c(Cl)c(F)c1)Nc1[nH]nc(-c2ccncc2)c1Cl [Example 97, 3-(4-Chloro-3,5-difluorophenyl)-N-(4-chloro-3-(pyridin-4-yl)-1H-pyrazol-5-yl)propanamide]
< 1000 | Cc1cnccc1-c1n[nH]c(NC(=O)CCc2ccc(Cl)cc2)c1C [Example 110]
< 1000 | COc1c(-c2ccncc2)n[nH]c1NC(=O)CCc1ccc(Cl)cc1 [Example 122, 3-(4-Chlorophenyl)-N-(4-methoxy-3-(pyridin-4-yl)-1H-pyrazol-5-yl)propanamide]
1000 to 10000 | O=C1N(Cc2ccc(Cl)cc2)CCCN1c1cnn(-c2ccncc2)c1 [Example 159, 1-(4-Chlorobenzyl)-3-(1-(pyridin-4-yl)-1H-pyrazol-4-yl)tetrahydropyrimidin-2(1H)-one]
< 1000 | O=C(CCc1ccc(Cl)cc1)Nc1cc(-c2ccncc2F)n[nH]1 [Example 170, 3-(4-Chlorophenyl)-N-(3-(3-fluoropyridin-4-yl)-1H-pyrazol-5-yl)propanamide]
< 1000 | O=C(CCc1ccc(Cl)cc1)Nc1cnn(-c2ccncc2)c1Cl [Example 90]
< 1000 | N#Cc1c(F)cc(CC2CCN(c3cc(-c4ccncc4)n[nH]3)C2=O)cc1F (centres unmarked) [Example 146, 2,6-Difluoro-4-((2-oxo-1-(3-(pyridin-4-yl)-1H-pyrazol-5-yl)pyrrolidin-3-yl)methyl)benzonitrile]
< 1000 | Cc1c(-c2ccncc2)n[nH]c1NC(=O)CCc1cc(Cl)no1 [Example 78, 3-(3-Chloroisoxazol-5-yl)-N-(4-methyl-3-(pyridin-4-yl)-1H-pyrazol-5-yl)propanamide]
< 1000 | O=C(CCc1ccc(Cl)cc1)Nc1cnn(-c2ccncc2)c1C(F)(F)F [Example 95, 3-(4-Chlorophenyl)-N-(1-(pyridin-4-yl)-5-(trifluoromethyl)-1H-pyrazol-4-yl)propanamide]
< 1000 | O=C(CCc1cc(F)c(Cl)c(F)c1)Nc1[nH]nc(-c2ccncc2)c1CO [Example 117, 3-(4-Chloro-3,5-difluorophenyl)-N-(4-(hydroxymethyl)-3-(pyridin-4-yl)-1H-pyrazol-5-yl)propanamide]
< 1000 | O=C(NCc1cc(F)c(F)c(F)c1)Nc1[nH]nc(-c2ccncc2)c1Cl [Example 145, 1-(4-Chloro-3-(pyridin-4-yl)-1H-pyrazol-5-yl)-3-(3,4,5-trifluorobenzyl)urea]
1000 to 10000 | O=C(CCc1ccc2c(c1)OCO2)Nc1cc(-c2ccncc2)n[nH]1 [Example 99, 3-(Benzo[d][1,3]dioxol-5-yl)-N-(3-(pyridin-4-yl)-1H-pyrazol-5-yl)propanamide]
1000 to 10000 | Cc1c(-c2ccncc2)n[nH]c1NC(=O)N(C)Cc1ccc(Cl)cc1 [Example 131, 1-(4-Chlorobenzyl)-1-methyl-3-(4-methyl-3-(pyridin-4-yl)-1H-pyrazol-5-yl)urea]
1000 to 10000 | Cc1c(-c2ccncc2)n[nH]c1N1C(=O)CC(Cc2ccc(Cl)cc2)C1=O (racemic) [Example 154, (rac)-3-(4-Chlorobenzyl)-1-(4-methyl-3-(pyridin-4-yl)-1H-pyrazol-5-yl)pyrrolidine-2,5-dione]
1000 to 10000 | Cc1c(-c2ccncc2)n[nH]c1N1C(=O)CC(c2ccc(Cl)cc2)CC1=O (racemic) [Example 157, (rac)-4-(4-Chlorophenyl)-1-(4-methyl-3-(pyridin-4-yl)-1H-pyrazol-5-yl)piperidine-2,6-dione]
< 1000 | Cc1c(NC(=O)CCc2cc(F)c(Cl)c(F)c2)cnn1-c1ccncc1 [Example 83, 3-(4-Chloro-3,5-difluorophenyl)-N-(5-methyl-1-(pyridin-4-yl)-1H-pyrazol-4-yl)propanamide]
< 1000 | Cc1c(NC(=O)CCc2ccc(Cl)cc2)cnn1-c1ccncc1 [Example 86]
< 1000 | O=C(CCc1cc(F)c(Cl)c(F)c1)Nc1cc(-c2ccncc2)n[nH]1 [Example 101, 3-(4-Chloro-3,5-difluorophenyl)-N-(3-(pyridin-4-yl)-1H-pyrazol-5-yl)propanamide]
1000 to 10000 | O=C(CCc1cccc(Cl)c1)Nc1cnn(-c2ccncc2)c1Cl [Example 126, N-[5-Chloro-1-(pyridin-4-yl)-1H-pyrazol-4-yl]-3-(3-chlorophenyl)propanamide]

Second part, the compound before the results:

Compound | IC50 [nM]
Cc1c(-c2ccncc2)n[nH]c1NC(=O)CC1CCCc2ccccc21 (centres unmarked) [Example 66, N-[4-Methyl-3-(pyridin-4-yl)-1H-pyrazol-5-yl]-2-(1,2,3,4-tetrahydronaphthalen-1-yl)acetamide] | 1000 to 10000
Cc1c(-c2ccncc2)n[nH]c1NC(=O)CCc1ccc(Cl)nc1 [Example 38, 3-(6-Chloropyridin-3-yl)-N-(4-methyl-3-(pyridin-4-yl)-1H-pyrazol-5-yl)propanamide] | < 1000
Cc1c(-c2ccncc2)n[nH]c1NC(=O)CCc1cccc(Cl)c1 [Example 30, 3-(3-Chlorophenyl)-N-(4-methyl-3-(pyridin-4-yl)-1H-pyrazol-5-yl)propanamide] | < 1000
Cc1c(-c2ccncc2)n[nH]c1NC(=O)CCc1ccc(C#N)cc1 [Example 36, 3-(4-Cyanophenyl)-N-(4-methyl-3-(pyridin-4-yl)-1H-pyrazol-5-yl)propanamide] | < 1000
Cc1c(-c2ccncc2)n[nH]c1NC(=O)C(F)Cc1ccc(C#N)c(F)c1 (racemic) [Example 70, (rac)-3-(4-Cyano-3-fluorophenyl)-2-fluoro-N-(4-methyl-3-(pyridin-4-yl)-1H-pyrazol-5-yl)propanamide] | 1000 to 10000
Cc1c(-c2ccncc2)n[nH]c1NC(=O)CCc1ccccc1 [Example 22, N-(4-Methyl-3-(pyridin-4-yl)-1H-pyrazol-5-yl)-3-phenylpropanamide] | 1000 to 10000
Cc1c(-c2ccncc2)n[nH]c1NC(=O)CC1CCc2cc(Cl)ccc21 (centres unmarked) [Example 67, 2-(5-Chloro-2,3-dihydro-1H-inden-1-yl)-N-[4-methyl-3-(pyridin-4-yl)-1H-pyrazol-5-yl]acetamide] | < 1000
Cc1c(-c2ccncc2)n[nH]c1NC(=O)/C(F)=C(\F)c1ccc(Cl)cc1 [Example 69, (E)-3-(4-chlorophenyl)-2,3-difluoro-N-(4-methyl-3-(pyridin-4-yl)-1H-pyrazol-5-yl)acrylamide] | 1000 to 10000
Cc1c(-c2ccncc2)n[nH]c1NC(=O)CCc1ccc(F)cc1F [Example 45, 3-(2,4-Difluorophenyl)-N-(4-methyl-3-(pyridin-4-yl)-1H-pyrazol-5-yl)propanamide] | < 1000
Cc1c(-c2ccncc2)n[nH]c1NC(=O)CCc1ccc(F)c(F)c1 [Example 44, 3-(3,4-Difluorophenyl)-N-(4-methyl-3-(pyridin-4-yl)-1H-pyrazol-5-yl)propanamide] | < 1000
Cc1c(-c2ccncc2)n[nH]c1NC(=O)CSc1ccc(Cl)cc1 [Example 63, 2-((4-Chlorophenyl)thio)-N-(4-methyl-3-(pyridin-4-yl)-1H-pyrazol-5-yl)acetamide] | < 1000
Cc1c(-c2ccncc2)n[nH]c1NC(=O)CCc1ccc(OC(F)F)cc1 [Example 55, 3-(4-(Difluoromethoxy)phenyl)-N-(4-methyl-3-(pyridin-4-yl)-1H-pyrazol-5-yl)propanamide] | < 1000
Cc1c(-c2ccncc2)n[nH]c1NC(=O)CCc1ccc(C(F)(F)F)cc1 [Example 32, N-(4-Methyl-3-(pyridin-4-yl)-1H-pyrazol-5-yl)-3-(4-(trifluoromethyl)phenyl)propanamide] | < 1000
Cc1c(-c2ccncc2)n[nH]c1N(C(=O)CCc1ccc(Cl)cc1)C(=O)CCc1ccccc1Cl [Example 5, 3-(2-Chlorophenyl)-N-(3-(4-chlorophenyl)propanoyl)-N-(4-methyl-3-(pyridin-4-yl)-1H-pyrazol-5-yl)propanamide] | < 1000
CCc1c(-c2ccncc2)n[nH]c1NC(=O)CCc1cc(F)c(Cl)c(F)c1 [Example 13, 3-(4-Chloro-3,5-difluorophenyl)-N-(4-ethyl-3-(pyridin-4-yl)-1H-pyrazol-5-yl)propanamide] | < 1000
Cc1c(-c2ccncc2)n[nH]c1NC(=O)CCc1cnc(Cl)s1 [Example 75, 3-(2-Chlorothiazol-5-yl)-N-(4-methyl-3-(pyridin-4-yl)-1H-pyrazol-5-yl)propanamide] | < 1000
Cc1c(-c2ccncc2)n[nH]c1NC(=O)CCc1ccc(Cl)cc1 [Example 19, 3-(4-Chlorophenyl)-N-(4-methyl-3-(pyridin-4-yl)-1H-pyrazol-5-yl)propanamide] | < 1000
